Experimental data reported in US20210380525A1, “COMPOSITIONS AND METHODS FOR THE TREATMENT OF PARKINSON'S DISEASE” (Cellix Bio Private Limited, priority 2018, published 2021).

What was measured:
[1] = Clinical signs of toxicity in the pharmacokinetic study; assay type: in vivo; conditions: single s.c. dose 50, 150 and 300 mg/Kg, male SD rats
Description: (§1) The objective of this study was to determine the pharmacokinetics of L-Dopa after a single subcutaneous administration of CLX-SYN-G107B-C01 at the doses of 50, 150 and 300 mg/Kg, in male Sprague-Dawley (SD) rats.
(§2) Three groups of 5-male rats in each (age 8-10 weeks; body weight range 198-226 g) were assigned to receive CLX-SYN-G107B-C01 at the doses of 50, 150 and 300 mg/kg, by subcutaneous route. CLX-SYN-G107B-C01 was formulated in Propylene glycol and PEG-300 for subcutaneous administration. The dose volume was 2 ml/kg.

[2] = Pharmacokinetic study: plasma L-Dopa after single subcutaneous administration of CLX-SYN-G107B-C01; assay type: in vivo, Sprague-Dawley rats; conditions: lowest tested dose of 50 mg/kg s.c. compared to other doses, SD rats
Description: as §1, §2
The blood samples (0.2 mL/time point) from the animals were collected at 0 (pre-dose), 0.083, 0.25, 0.5, 1, 2, 4, 8, 10, 24, 48 and 72 h post dosing after subcutaneous administration. The plasma samples were analyzed for L-Dopa using a fit-for-purpose LC-MS/MS method.

## CCCCCCC(=O)N[C@@H](Cc1ccc(O)c(O)c1)C(=O)OCC(COC(=O)CCCCCC)OC(=O)CCCCCC (stereo partly drawn) [CLX-SYN-G107B-C01, 3-(((S)-3-(3,4-dihydroxyphenyl)-2-heptanamidopropanoyl)oxy)propane-1,2-diyl diheptanoate]
[1]
  Clinical signs of toxicity: No clinical signs of toxicity were observed
[2]
  Bioavailability (comparison of doses): enhanced bioavailability with low dose
